This note sets out measurements from patent US9382265B2, “Oxazolidone compound, preparing method and application thereof” (SHANGHAI INSTITUTE OF MATERIA MEDICA, CHINESE ACADEMY OF …, priority 2013, dated 2016).

Each structure is given as a SMILES string.

One data set deals with T1, human recombinant FXa (Homo sapiens, UniProt P00742).
T1 construct: purchased Calbiochem; host or cells: human plasma
In words: FXa inhibitory activity assay (chromogenic substrate, 405 nm). The format is biochemical. The settings on record: inhibitory activity on FXa, preincubated at 37° C. for 10 mins. As for the experimental part:
Experimental principle and method: FXa cuts the Arg carboxyl end in the substrate N-Z-D-Arg-Gly-Arg-pDA in vitro and releases p-nitrophenylamine which has specific absorption at 405 nm wavelength. The amount of the […] generated is determined at 405 nm to evaluate the activity of the compound to inhibit the human recombinant FXa in vitro.
Human plasma coagulation factor Xa was purchased from Calbiochem; the substrate N-Z-D-Arg-Gly-Arg-pDA was purchased from chromogenic. The subject compound, enzyme and the reaction buffer were mixed and preincubated at 37° C. for 10 mins. The substrate was added. The absorption at 405 nm wavelength was measured continuously over 20 mins. At the same time, a blank control group (without enzyme, 100% inhibition rate) and a negative control group (replace the subject compound with DMSO, 0% inhibition rate) were set up. The reaction system was 100 μl (50 μl of Tris buffer, 10 μl of compound, 20 μl (0.027 U/ml) of enzyme, 20 μl (300 μM) of substrate). Each concentration of each sample was assayed in triplicate. The experiment was carried out for 2 times independently.

Another data set in a line: in vivo. As for the experimental part:
Healthy male SD rats, body weight 200-220 g, randomly divided into 6 groups with each group 3-4 rats, were administered with the subject compound via intragastric administration and intravenous injection, respectively.
The subject compound was prepared with 5% DMSO/5% Twain 80/90% saline into solution for administration.
The rats were fasted for 12 hrs before experiment, free water-drinking, and were all fed 2 h after administration. Blood sampling time and sample treatment:
intragastric administration: 0.25, 0.5, 1.0, 2.0, 3.0, 4.0, 6.0, 8.0, and 24 h after administration;
intravenous administration: 5 min, 0.25, 0.5, 1.0, 2.0, 4.0, 6.0, 8.0, and 24 h after administration.
At the time points defined above, 0.3 ml of venous blood was taken from the posterior venous plexus of rats to heparinized tubes, centrifuged at 11000 rpm for 5 mins to separate the plasma, which was then frozen at −20° C. in a refrigerator.

Data set [1] has as its system rabbit sodium citrate anticoagulant plasma. The data set is described as follows: In vitro anticoagulant activity: prothrombin time (PT). It counts as biochemical. The settings on record: compound concentration that prolonged the PT time by 1 time vs blank control. As for the experimental part:
The experiment used […]-1 immunomagnetic single channel semi-automated blood coagulation analyzer to measure blood coagulation time. Principle: An excessive amount of tissue thromboplastin (infusion of preparations such as human brain, rabbit brain, placenta, and lung tissue) and calcium ion are added to the plasma to be tested, thereby converting prothrombin into thrombin, and the latter converts fibrinogen into fibrin. The time needed for plasma coagulation is observed as prothrombin time. This experiment is the most commonly used screening test for the evaluation of an extrinsic coagulation system. Test method: To the rabbit sodium citrate anticoagulant plasma (3.8% sodium citrate, 1:9 mixture) were added various concentrations of the compounds to be tested. PT reagents ([…], Beijing) were used to measure the prothrombin activation time. The compound concentration that prolonged the PT time by 1 time, when compared with the blank control, was recorded as PT2, thereby evaluating the anticoagulant activity of the compounds. Rabbit sodium citrate anticoagulant plasma (3.8% sodium citrate plasma, 1:9 mixture) was purchased from Guangzhou Ruite Bio company; […]-1 immunomagnetic single channel semi-automated blood coagulation analyzer and […] blood coagulation 3-item reagents were purchased from Beijing […] instrument company. […] Each concentration of each sample was assayed in 3-6 duplicate wells, and the experiment was independently carried out for 2-3 times.

For data set [2] the test system is unchanged. In words: In vitro anticoagulant activity: activated partial thromboplastin time (APTT). The format is biochemical. The conditions noted are these: compound concentration that prolonged the APTT time by 1 time vs blank control. As for the experimental part:
The experiment used […]-1 immunomagnetic single channel semi-automated blood coagulation analyzer to measure blood coagulation time. Principle: At 37° C., using Kaolin to activate factors □ and □; using cephalin (partial thromboplastin) to replace platelet factor 3; and in the presence of Ca^2+, the time needed for the coagulation of plasma which lacks of platelet is observed as activated partial thromboplastin time. This experiment is a screening test which is sensitive and commonly used for the endogenous blood coagulation system. Test method: To the rabbit sodium citrate anticoagulant plasma (3.8% sodium citrate, 1:9 mixture) were added various concentrations of the compounds to be tested. APTT reagents ([…], Beijing) were used to measure the […] activation time. The compound concentration that prolonged the APTT time by 1 time, when compared with the blank control, was recorded as APTT2, thereby evaluating the anticoagulant activity of the compounds. Rabbit sodium citrate anticoagulant plasma (3.8% sodium citrate plasma, 1:9 mixture) was purchased from Guangzhou Ruite Bio company; […]-1 immunomagnetic single channel semi-automated blood coagulation analyzer and […] blood coagulation 3-item reagents were purchased from Beijing […] instrument company. […] Each concentration of each sample was assayed in 3-6 duplicate wells, and the experiment was independently carried out for 2-3 times.

In the next data set the test system is thrombus formation. The data set is described as follows: In vivo anticoagulant activity: electrically induced carotid artery thrombus formation time. Also on record: species or system rat. The settings on record: for ED50: Rattus norvegicus, po, male SD rats, intragastric administration, 3 mA electrical stimulation of left common carotid artery 1 h after administration, read-out: ED50 for prolonging the thrombus formation time. As for the experimental part: The rats were fasted for 12 h, then weighted, and treated by intragastric administration. After 45 min, the rats were anesthetized with chloral hydrate (350 mg/kg), immobilized, and the left common carotid artery was exposed by surgery. The artery and the surrounding tissue were separated by plastic wrap. Electrical stimulation was started 1 h after intragastric administration. The stimulation electrode of the BT87-4 tester for experimental in vivo thrombus formation was placed at the end of the blood vessels proximal to the heart. 3 mA current was used for a 2 min of stimulation. The instrument started the timer automatically when the stimulation began. The stimulation switch was turned off when the stimulation ended. The stimulation electrode was removed, and a thermostat probe was placed at the end of the artery on the stimulation site, which end is distal to the heart. At the time of 600 seconds, the pointer of the thermostat panel was slowly moved to the position of 0. The time from the start of simulation to the alarm of the instrument was recorded as the time of blood vessel blockage (or the time of thrombus formation). If a drug has antithrombosis effect, the time of thrombus formation (time of blood vessel blockage) will be prolonged. IBM SPSS Statistics 20 software was used for the t test of the experimental data.

Setting [3] is: male, SD, rat, in vivo, iv, 3 mg/kg.
Setting [4] is: male, SD, rat, in vivo, po, 10 mg/kg.
The mark [5] stands for this setting: male, SD, rat, in vivo, iv, 4.5 mg/kg.
Setting [6] is: male, SD, rat, in vivo, po, 9 mg/kg.

T1 sequence (P00742 235-488 limits assumed): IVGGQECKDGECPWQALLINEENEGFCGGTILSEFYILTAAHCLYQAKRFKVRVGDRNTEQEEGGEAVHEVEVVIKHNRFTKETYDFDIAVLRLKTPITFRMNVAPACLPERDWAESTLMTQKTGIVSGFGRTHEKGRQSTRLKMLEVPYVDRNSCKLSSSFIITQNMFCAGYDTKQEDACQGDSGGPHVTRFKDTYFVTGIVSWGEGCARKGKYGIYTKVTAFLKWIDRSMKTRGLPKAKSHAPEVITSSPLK
T1 sequence (P00742 41-179 partner limits assumed): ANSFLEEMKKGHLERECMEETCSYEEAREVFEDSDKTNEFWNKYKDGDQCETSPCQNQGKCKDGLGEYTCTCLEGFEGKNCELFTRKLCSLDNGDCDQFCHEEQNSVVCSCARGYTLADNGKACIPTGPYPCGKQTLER

For orientation: IC50 means the concentration that gives 50% inhibition. As usually defined, the MRT is a mean duration of stay, worked out from the concentration-time curve. For orientation: Vss means a proportionality between amount in the body and measured concentration, not a real space. What is called Cmax is the highest concentration seen after dosing. In general, Tmax refers to the time at which the peak concentration occurs. Broadly, the ED50 is the dose that gives a 50% effect, or the effect in half of the subjects. For `O=C(NC[C@@H]1OC(=O)N2c3ccc(N4CCOCC4=O)cc3OC[C@@H]12)c1ccc(Cl)s1` [Compound 1, 5-chloro-N-(((3S,3aS)-1-oxo-7-(3-oxomorpholin-4-yl)-1,3,3a,4-tetrahydrobenzo[b]oxazolo[3,4-d][1,4]oxazin-3-yl)methyl)thiophene-2-carboxamide], the IC50 at human recombinant FXa amounted to 2.25 ± 0.01 nM. In the data set “in vivo” (male, SD, rat, in vivo), this molecule yielded an F of 63.7%. In the data set “in vivo” (setting [3]), this molecule returned a CLz of 3.35 mL/min/kg, an MRT of 1.03 h, a T1/2 of 1.00 h and a Vss of 0.201 L/kg. Besides, in “in vivo” (setting [4]), the Cmax came out at 11901 ng/mL, the MRT was found to be 2.23 h, the T1/2 is on record as 1.33 h and the Tmax was 0.75 h. Moreover, in “in vivo” (rat, in vivo, iv, 3 mg/kg), the AUC0-t is listed as 15324 ngh/mL and the “AUC0-∞” value worked out at 15339 ngh/mL. Moreover, in the data set “in vivo” (rat, in vivo, po, 10 mg/kg), the AUC0-t is given as 32529 ngh/mL and the “AUC0-∞” value is reported as 33044 ngh/mL. Moreover, in data set [1], the PT2 worked out at 0.184 µM. Further, the APTT2 in data set [2] stood at 0.141 µM. In addition, the 50% effective dose (ED50) in the data set with thrombus formation is 2.97 mg/kg. Besides, the “activity relative to rivaroxaban” value with thrombus formation (ratio of ED50s for prolonging thrombus formation time, rats) came out at 1.53 times.

The molecule `O=C(NC[C@@H]1OC(=O)N2c3ccc(N4CCCCC4=O)cc3OC[C@@H]12)c1ccc(Cl)s1` [Compound 2, 5-chloro-N-(((3S,3aS)-1-oxo-7-(2-oxopiperidin-1-yl)-1,3,3a,4-tetrahydrobenzo[b]oxazolo[3,4-d][1,4]oxazin-3-yl)methyl)thiophene-2-carboxamide] yielded a F in the data set “in vivo” (male, SD, rat, in vivo) of 42.0%. In the data set “in vivo” (setting [5]), this molecule displayed a CLz of 2.28 mL/min/kg, a mean residence time (MRT) of 3.04 h and a volume of distribution (Vss) of 0.406 L/kg. Besides, in “in vivo” (setting [6]), the highest concentration (Cmax) is 6927 ng/mL, the mean residence time (MRT) was found to be 3.4 h and the Tmax is on record as 0.67 h. Besides, in the data set “in vivo” (rat, in vivo, iv, 4.5 mg/kg), the AUC0-t was determined as 31057 ngh/mL and the “AUC0-∞” value stood at 33562 ngh/mL. In the data set “in vivo” (rat, in vivo, po, 9 mg/kg), the AUC0-t is on record as 26119 ngh/mL and the “AUC0-∞” value is 28527 ngh/mL. In the data set “in vivo” (rats, intravenous injection (4.5 mg/Kg)), this molecule yielded a T1/2 of 1.95 h. Further, in the data set “in vivo” (rats, oral administration (9 mg/Kg)), the T1/2 came out at 2.10 h. The same molecule returned a PT2 in data set [1] of 1.06 µM. The molecule further returned an APTT2 in data set [2] of 0.932 µM.

Regarding `O=C(NC[C@@H]1OC(=O)N2c3ccc(N4CCOCC4=O)cc3OC[C@@H]12)c1ccc(Cl)cc1` [Compound 17, 4-chloro-N-(((3S,3aS)-1-oxo-7-(3-oxomorpholin-4-yl)-1,3,3a,4-tetrahydrobenzo[b]oxazolo[3,4-d][1,4]oxazin-3-yl)methyl)benzamide], the IC50 on human recombinant FXa came to 12.2 ± 10.5 nM.

Take `O=C(NC[C@@H]1OC(=O)N2c3ccc(N4CC[C@@H](F)CC4=O)cc3OC[C@@H]12)c1ccc(Cl)s1` [Compound 33, 5-chloro-N-(((3S,3aS)-7-((R)-4-fluro-2-oxopiperidin-1-yl)-1-oxo-1,3,3a,4-tetrahydrobenzo[b]oxazolo[3,4-d][1,4]oxazin-3-yl)methyl)-thiophene-2-carboxamide]: at human recombinant FXa, the IC50 was determined as 15 ± 1.6 nM.

Regarding `O=C(NC[C@@H]1OC(=O)N2c3ccc(N4CC[C@H](F)CC4=O)cc3OC[C@@H]12)c1ccc(Cl)s1` [Compound 34, 5-chloro-N-(((3S,3aS)-7-((S)-4-fluro-2-oxopiperidin-1-yl)-1-oxo-1,3,3a,4-tetrahydrobenzo[b]oxazolo[3,4-d][1,4]oxazin-3-yl)methyl)-thiophene-2-carboxamide], the concentration for half-maximal inhibition (IC50) at human recombinant FXa stood at 19.3 ± 3.39 nM.

On to `NS(=O)(=O)c1ccccc1-c1ccc2c(c1)OC[C@H]1[C@H](CNC(=O)c3ccc(Cl)s3)OC(=O)N21` [Compound 35, 5-chloro-N-(((3S,3aS)-1-oxo-7-(2-aminosulfonylphenyl)-1,3,3a,4-tetrahydrobenzo[b]oxazolo[3,4-d][1,4]oxazin-3-yl)methyl)thiophene-2-carboxamide], for which, at human recombinant FXa, the IC50 came to 19.6 ± 16.9 nM.

On to `CS(=O)(=O)c1ccccc1-c1ccc2c(c1)OC[C@H]1[C@H](CNC(=O)c3ccc(Cl)s3)OC(=O)N21` [Compound 36, 5-chloro-N-(((3S,3aS)-7-(2-(methylsulfonyl)phenyl)-1-oxo-1,3,3a,4-tetrahydrobenzo[b]oxazolo[3,4-d][1,4]oxazin-3-yl)methyl)thiophene-2-carboxamide], for which the half-maximal inhibitory concentration (IC50) at human recombinant FXa is 12.2 ± 4.08 nM.

Usually Vd stands for a proportionality between amount in the body and measured concentration, not a real space. Read a low Vd as little distribution into tissue. By half-life is commonly meant the time needed for the level to fall by half in the phase considered. A low value points to rapid decline. `O=C(NC[C@H]1CN(c2ccc(N3CCOCC3=O)cc2)C(=O)O1)c1ccc(Cl)s1` [rivaroxaban, reference compound] showed a F in “in vivo” (male, SD, rat, in vivo) of 4.6%. In “in vivo” (setting [3]), this molecule gave a CLz of 4.75 mL/min/kg, a mean residence time MRT of 0.88 h, a Vd of 0.25 L/kg and a half-life of 0.98 h. Further, in “in vivo” (setting [4]), the highest level (Cmax) was 440 ng/mL, the MRT stood at 7.01 h, the time of peak concentration (Tmax) was determined as 0.56 h and the half-life is 4.64 h. In addition, in the data set “in vivo” (rat, in vivo, iv, 3 mg/kg), the AUC0-t is on record as 10548 ngh/mL and the “AUC0-∞” value was found to be 10575 ngh/mL. Besides, in “in vivo” (rat, in vivo, po, 10 mg/kg), the AUC0-t was found to be 1608 ngh/mL and the “AUC0-∞” value is 2242 ngh/mL. Further, in data set [1], the PT2 worked out at 0.399 µM. Further, the APTT2 in data set [2] came out at 0.315 µM. The median effective dose (ED50) in the data set on thrombus formation stood at 4.53 mg/kg.
